US20260294885A1, “TREATMENT OF INFLAMMATORY CONDITIONS COMPRISING IMU-856” (IMMUNIC AG, priority 2023, published 2026)
Entries after “also recorded” stand apart in the source; their conditions may differ.

Experiments:
CaCo2 cells = assay: In vitro intestinal barrier function model (TEER, Example 2); type: cell-based, human; settings: compared to vehicle control, after 4 h chemical challenge
Description: (§1) CaCo2 cell line is derived from human epithelial cells from the colon. They are frequently used to mimic intestinal barrier function to either look at permeability of drugs or to look at is functional resistance. For the present experiment, the CaCo2 cells were used to mimic the loss of its barrier function upon challenging the cells with [COMPOUND LEFT OUT] sulfonic acid [COMPOUND LEFT OUT] and investigate the effect of IMU-856 on this by measuring the electrical transepithelial resistance (TEER). […] For this CaCo2 cells, cultivated in a 6-well trans well plate on top of the membrane that has small pores that prevent the cells from going through but allow molecules and nutrients to pass. After 3 weeks, when the TEER is stable, the monolayer is challenged with 0.25% [COMPOUND LEFT OUT] stimulation for 4 h. Then, cells were washed and fresh medium with vehicle or IMU-856 was given. TEER was measured before and after challenge at different time points. For correct measurement, the shorter electrode is inserted into the transwell chamber (without touching the cells), and the longer electrode is inserted in the outer well.

[1] = tested on: patients with celiac disease; assay: Nutrient absorption (vitamin B12, zinc, ferritin), Part C; type: in vivo, human; settings: for increase in vitamin B12 levels: over the course of the trial; for mean increase in vitamin B12 levels / mean increase in zinc levels: baseline to Day 29
Procedure: In Part A, healthy subjects were randomised to single ascending doses of IMU-856 (10 mg to 160 mg) or placebo. In Part B healthy subjects were randomised to multiple once-daily doses of IMU-856 (40, 80, and 160 mg) or placebo for 14 days. Part C randomised patients with celiac disease who were on a gluten-free diet to multiple once-daily doses of IMU-856 (80 mg and 160 mg) or placebo for 28 days; a once-daily gluten challenge (6 g) was introduced on Day 14 and ended on Day 28. 71 healthy subjects were enrolled in Part A and B (N=19 placebo and N=52 IMU-856) and 43 patients with CelD in Part C (N=14 placebo; N=14 for 80 mg, and N=15 for 160 mg). In Parts A and B, treatment-emergent adverse events (TEAEs) occurred in 24 (73%) and 15 (79%) of subjects receiving any dose of IMU-856 compared to 6 (50%) and 5 (71%) with placebo, respectively. […] In Part C, the most common adverse events with any dose of IMU-856 by preferred term were headache (13 [45%]), nausea (9 [31%]), diarrhoea (8 [28%]), and abdominal distension (7 [24%]). […] In Part C, the mean change in villous height from baseline to Day 29 with 80 mg and 160 mg was −20.9±34.8 μm, and −22.5±51.1 μm, respectively, and −60.3±52.2 μm with placebo. […] Mean change in plasma citrulline increased with 80 mg and 160 mg from baseline to Day 14 (2.4±6.2 and 6.1±5.9 μmol/L, respectively) and from baseline to Day 29 (2.8±7.6 and 2.2±5.3 μmol/L, respectively), but not with placebo (−2.7±5.6 and −4.0±6.5 μmol/L). […] Mean increase in zinc levels from baseline to Day 29 with 80 mg and 160 mg were 0.3±1.4 and 0.9±2.1 μmol/L compared to a mean decrease in placebo (−0.9±2.1 μmol/L). Gluten-induced symptoms were also attenuated by IMU-856. […]

[2] = tested on: sirtuin 6 protein (SIRT6); assay: SIRT6 protein stabilization
[3] = tested on: colorectal adenocarcinoma-2 (Caco-2) cells; assay: TEER recovery across a Caco-2 monolayer following inflammation with TNF-α or IL-6; type: cell-based, human
Description: In one TEER model, tight junction (TJ)-related proteins were investigated, and a normalisation of TJ proteins (claudin (Cldn)-1 and claudin-2) was observed.
as §1, with “loss of its barrier function upon challenging the cells with [COMPOUND LEFT OUT] sulfonic acid [COMPOUND” left out, “After 3 weeks, when the TEER is stable, the monolayer is challenged with 0.25% [COMPOUND LEFT OUT] stimulation for 4 h.” left out

Question: Which TEER (CaCo2 cells) does the source give for `Cn1c(COc2cc(C(F)(F)F)ccn2)nnc1[C@H]1CC[C@H](c2cnn([C@H]3CC[C@H](N4CC5(CCO5)C4)CC3)c2)CC1` [IMU-856, 6-(trans-4-(4-(trans-4-(4-methyl-5-(((4-(trifluoromethyl)pyridin-2-yl)oxy)methyl)-4H-1,2,4-triazol-3-yl)cyclohexyl)-1H-pyrazol-1-yl)cyclohexyl)-1-oxa-6-azaspiro[3.3]heptane] here?
Answer: The TEER was “higher TEER”.

Question: And the TEER recovery rate (CaCo2 cells)?
Answer: Its TEER recovery rate is “higher recovery rate”.

Question: And the “increase in vitamin B12 levels” value ([1]; 80 mg (N=11))?
Answer: The value was 45.8 pmol/L.

Question: What about the mean increase in vitamin B12 levels ([1]; 80 mg) of the same compound?
Answer: The mean increase in vitamin B12 levels was 45.8 ± 94.4 pmol/L.

Question: What about the “mean increase in zinc levels” value ([1]; 80 mg) of the same compound?
Answer: The value was 0.3 ± 1.4 µmol/L.

Question: What about the increase in vitamin B12 levels ([1]; 160 mg (N=13)) of the same compound?
Answer: The increase in vitamin B12 levels was 74.2 pmol/L.

Question: What about the mean increase in vitamin B12 levels ([1]; 160 mg) of the same compound?
Answer: The mean increase in vitamin B12 levels was 74.2 ± 99.9 pmol/L.

Question: What about the “mean increase in zinc levels” value ([1]; 160 mg) of the same compound?
Answer: The value was 0.9 ± 2.1 µmol/L.

Question: What about the “gluten-induced iron malabsorption (ferritin levels)” value ([1]; Baseline to Day 29) of the same compound?
Answer: Its value is “ameliorates the gluten-induced iron malabsorption; also recorded: decreased to a lesser extent”.

Question: And the “nutrient absorption (vitamin B12)” value ([1]; in words)?
Answer: Its value is “enhances nutrient absorption in a dose-dependent manner”.

Question: What about the “nutrient absorption (zinc)” value ([1]; in words) of the same compound?
Answer: The value was “enhances nutrient absorption in a dose-dependent manner; also recorded: A similar responses to treatment was observed for zinc”.

Question: And the “stabilization of sirtuin 6 protein” value [2]?
Answer: The value was “stabilizer”.

Question: What about the “recovery of TEER” value ([3]; following inflammation with IL-6) of the same compound?
Answer: The value was “significantly accelerates the recovery”.

Question: What about the “recovery of TEER” value ([3]; following inflammation with TNF-α) of the same compound?
Answer: The value was “significantly accelerates the recovery”.
